# Experiments:
# [1] = system: carrageenan-induced thermal hyperalgesia in male SD rats; conditions: orally administered; cited from earlier work
# [2] = system: adjuvant-induced arthritis in male Lewis rats; conditions: cited from earlier work
# [3] = plasma pharmacokinetics in healthy male subjects, multiple dose (loading plus daily maintenance dose, 8 days); format: in vivo, human
# From the text: By assuming an elimination half-life of 4 to 5 days for Compound A, were designed multiple dosing regimens by which steady state plasma concentrations of Compound A are rapidly reached and maintained throughout the dosing period. […] Although only two examples of dosing regimens involving a combination of loading dose and daily maintenance dose are provided in Table 3, it is not intended to limit the dosing regimens of this invention only to those provided in Table 3. Obviously, variations in the loading dose and consequent the daily maintenance dose levels may be conceived depending on indications of subjects. For example a loading dose of 2 mg may be used in combination with a daily maintenance dose of about 0.25 mg/day.
# The dosing regimens of the instant invention were tested in healthy human male subjects. Table 4 provides mean pre-dose plasma levels of Compound A following oral administrations of capsule drug products containing Compound A according to either Regimen A or Regimen B of Table 3 daily once for 8 days. In both dosing regimens, the pre-dose plasma levels remained almost constant.
# [4] = plasma pharmacokinetics in healthy male subjects, single oral dose of capsule drug product
# [5] = clinical; conditions: male, human, plasma, po
structure (smiles),measurement,setting,value
"CC1(C)OC(c2ccc(S(N)(=O)=O)cc2)=C(c2cccc(F)c2)C1=O [Compound A, 5-{4-(aminosulfonyl)phenyl}-2,2-dimethyl-4-(3-fluorophenyl)-3(2H)furanone]",ED50 in carrageenan-induced thermal hyperalgesia,[1],0.25 mg/kg
same,ED50 by adjuvant-induced arthritis,[2],0.1 mg/kg/day
same,Mean Pre-dose Plasma Level,"[3]; Regimen A (3 mg loading, 0.4 mg/day maintenance), Day 2",3.8 ng/mL
same,drug accumulation from the multiple dosings,"[3]; Regimen A and Regimen B, daily once for 8 days",no suggestions of drug accumulation
same,Mean Pre-dose Plasma Level,"[3]; Regimen A, Day 1 (before loading dose)",0 ng/mL
same,Mean Pre-dose Plasma Level,"[3]; Regimen A, Day 3",4.2 ng/mL
same,Mean Pre-dose Plasma Level,"[3]; Regimen A, Day 4",4.0 ng/mL
same,Mean Pre-dose Plasma Level,"[3]; Regimen A, Day 5",4.7 ng/mL
same,Mean Pre-dose Plasma Level,"[3]; Regimen A, Day 6",4.5 ng/mL
same,Mean Pre-dose Plasma Level,"[3]; Regimen A, Day 7",3.6 ng/mL
same,Mean Pre-dose Plasma Level,"[3]; Regimen A, Day 8",3.6 ng/mL
same,Mean Pre-dose Plasma Level,"[3]; Regimen A, Day 9 (no dose)",4.0 ng/mL
same,Mean Pre-dose Plasma Level,"[3]; Regimen B (6 mg loading, 0.8 mg/day maintenance), Day 2",6.2 ng/mL
same,Mean Pre-dose Plasma Level,"[3]; Regimen B, Day 1 (before loading dose)",0 ng/mL
same,Mean Pre-dose Plasma Level,"[3]; Regimen B, Day 3",6.2 ng/mL
same,Mean Pre-dose Plasma Level,"[3]; Regimen B, Day 4",6.3 ng/mL
same,Mean Pre-dose Plasma Level,"[3]; Regimen B, Day 5",6.5 ng/mL
same,Mean Pre-dose Plasma Level,"[3]; Regimen B, Day 6",6.3 ng/mL
same,Mean Pre-dose Plasma Level,"[3]; Regimen B, Day 7",6.6 ng/mL
same,Mean Pre-dose Plasma Level,"[3]; Regimen B, Day 8",7.1 ng/mL
same,Mean Pre-dose Plasma Level,"[3]; Regimen B, Day 9 (no dose)",6.6 ng/mL
same,half-life,"[3]; male, human, plasma, oral, Regimen A and Regimen B, after 8 days of daily once dosing, read-out: mean elimination half-lives following the last dosing",96 to 120 h
same,Terminal Elimination Half-life,[4]; single oral dose 5 mg (Group 2),118 ± 66 h
same,Terminal Elimination Half-life,[4]; single oral dose 8 mg (Group 3),77 ± 8 h
same,Terminal Elimination Half-life,[4]; single oral dose 12 mg (Group 4),135 ± 24 h
same,dose dependence of Cmax,[4]; single oral dose 1 to 12 mg,increased essentially dose proportionally
same,half-life,[5],77 to 135 h
same,Cmax,[5]; 1 mg,0.00165 µg/mL
same,Cmax,[5]; 5 mg,0.00782 µg/mL
same,Cmax,[5]; 8 mg,0.0133 µg/mL
same,Cmax,[5]; 12 mg,0.0181 µg/mL
"COc1ccc2c(c1)c(CC(=O)O)c(C)n2C(=O)c1ccc(Cl)cc1 [indomethacin, reference compound]",ED50 in carrageenan-induced thermal hyperalgesia,[1],~1.0 mg/kg
same,ED50 by adjuvant-induced arthritis,[2],0.3 mg/kg/day

# Source: US20080306146A1, “Dosing Regimens for Cox-2 Inhibitor” (AMOREPACIFIC CORPORATION, priority 2005, published 2008)
